{"source": "patent US4230705A", "about": "“6-Phenyl-1,2,4-triazolo[4,3-b]pyridazines and their uses in treating anxiety” (American Cyanamid Company, priority 1976, dated 1980)", "key": {"[1]": {"tested_on": "Clonic Seizures Caused By Pentylenetetrazole", "test": "Protection against clonic seizures caused by pentylenetetrazole in rats", "assay_type": "in vivo", "settings": "Rattus norvegicus; oral, 2% starch vehicle; pentylenetetrazole 21 to 23 mg./kg. intravenously at estimated time of peak effect; protection of 50% of rats; read-out: Medium Effective Oral Dose mg./kg. ED50 (converted)", "method": "The anti-anxiety properties of the novel compounds of the present invention have been established in a test which indicates anxiolytic activity by the measure of protection from convulsions resulting from the administration of pentylenetetrazole. Graded dose levels of the compounds of this invention were administered orally, in a 2% starch vehicle, to groups of at least 5 rats. At the estimated time of peak effect, the rats were treated intravenously with pentylenetetrazole at a dose of 21 to 23 mg./kg. of body weight. This dose is estimated to cause clonic seizures in 99% of unprotected rats. The effective dose (ED50) of the test compound for protection of 50% of the animals is calculated by the method of D. H. Finney in \"Statistical Methods in Biological Assay\", Second Edition, Hafner Publishing Co., New York, 1964, pp. 456-457. Representative results are given in Table I which follows in comparison with chlordiazepoxide or meprobamate, which were tested in exactly the same manner. It has been reported [R. T. Hill and D. H. Tedeschi, \"Animal Testing and Screening Procedures in Evaluating Psychotropic Drugs\" in \"An Introduction to Psychopharmacology\", Eds. R. R. Rech and K. E. Moore, Raven Press, New York, pp. 237-288 (1971)] that there is a high degree of correlation between antagonism of pentylenetetrazole seizures in rats and anti-anxiety effects in higher warm-blooded animals."}, "[2]": {"tested_on": "conflict situation in rats", "test": "Non-conditioned passive avoidance (conflict) procedure in rats", "assay_type": "in vivo, Sprague-Dawley rats", "settings": "Rattus norvegicus; oral, 2% starch vehicle; 9 or more shocks in 5 minute test period; rats deprived of water 48 hours and food 24 hours; read-out: Median Effective Dose (ED50 mg./kg.)", "method": "Another test which has been used to assess anti-anxiety effects is a non-conditioned passive avoidance procedure described by J. R. Vogel, B. Beer and D. E. Clody, \"A Simple and Reliable Conflict Procedure for Testing Anti-Anxiety Agents\", Psychopharmacologia, Vol. 21, pp. 1-7 (1971). A conflict situation is induced in rats by a modification of this method. To groups of six naive Sprague-Dawley rats (200-220 grams), previously deprived of water for forty-eight hours and food for 24 hours, are administered graded oral doses of test compound suspended in 2% starch vehicle also containing 2 drops of polyethylene glycol and polysorbate 80, or vehicle alone (controls). At the time of peak effect each rat is placed in a plexiglass box fitted with a drinkometer circuit connected between the stainless steel grid floor and a stainless steel drinking tube inserted in a hole in one of the walls of the box. […] The number of shocks received by the rat during a 5 minute test period is recorded. […]"}}, "data": [{"compound": "Cc1nnc2ccc(-c3ccccc3)nn12", "note": "[3-methyl-6-phenyl-1,2,4-triazolo[4,3-b]pyridazine]", "values": [{"measurement": "ED50", "setting": "[1]", "value": 3, "unit": "mg/kg"}, {"measurement": "ED50", "setting": "[2]", "value": 100, "unit": "mg/kg"}]}, {"compound": "c1ccc(-c2ccc3nncn3n2)cc1", "note": "[6-phenyl-1,2,4-triazolo[4,3-b]pyridazine]", "values": [{"measurement": "ED50", "setting": "[1]", "value": 9.5, "unit": "mg/kg"}]}, {"compound": "CNC1=Nc2ccc(Cl)cc2C(c2ccccc2)=[N+]([O-])C1", "note": "[Chlordiazepoxide]", "values": [{"measurement": "ED50", "setting": "[1]", "value": 2.5, "unit": "mg/kg"}, {"measurement": "ED50", "setting": "[2]", "value": 9.6, "unit": "mg/kg"}]}, {"compound": "CCCC(C)(COC(N)=O)COC(N)=O", "note": "[Meprobamate]", "values": [{"measurement": "ED50", "setting": "[1]", "value": 22, "unit": "mg/kg"}]}]}
